Test results as given in US8609690B2, “Aryl- and heteroarylcarbonyl derivatives of substituted nortropanes, medicaments containing such compounds and their use” (Boehringer Ingelheim International GmbH, priority 2008, dated 2013).

Biological target: T1, 11β-HSD 1 (Homo sapiens, UniProt P28845)
T1 construct: detecting cortisol generated from cortisterone by human liver microsomes; from tissue; host or cells: human liver microsomes
Test: In vitro inhibition of 11β-HSD 1, HTRF detection of cortisol generated by human liver microsomes
Type: biochemical
Conditions: 1 μM test compound, 100% indicates no inhibition, zero or below zero indicates complete inhibition (relative to carbenoxolone)
Outline: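 Human liver microsomes with test compound were incubated 1 h at 37 °C in Tris buffer, pH 6.0, with 200 μM NADPH and 80 nM cortisone. Cortisol formed was detected by competitive HTRF immunoassay (665/615 nm ratio) and calibrated against a cortisol standard curve. Values are activities at 1 μM compound relative to carbenoxolone, where 100% indicates no inhibition.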

T1 sequence (P28845 whole entry): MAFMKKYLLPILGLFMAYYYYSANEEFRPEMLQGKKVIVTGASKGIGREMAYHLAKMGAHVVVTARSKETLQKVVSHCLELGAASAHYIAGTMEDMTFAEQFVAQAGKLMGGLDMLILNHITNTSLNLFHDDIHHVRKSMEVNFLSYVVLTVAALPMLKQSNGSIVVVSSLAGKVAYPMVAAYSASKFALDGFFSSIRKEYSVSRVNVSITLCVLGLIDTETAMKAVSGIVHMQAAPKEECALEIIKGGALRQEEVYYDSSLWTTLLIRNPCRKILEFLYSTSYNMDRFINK

Compound: O=C(c1ccc2[nH]cnc2c1)N1[C@@H]2CC[C@H]1C[C@@H](c1ccc(F)cc1)C2 [Example 1, endo-(1H-Benzoimidazol-5-yl)-[3-(4-fluoro-phenyl)-8-aza-bicyclo[3.2.1]oct-8-yl]-methanone]
- Inhibitory activity on 11β-HSD 1, % CTL: −18 % CTL

Compound: O=C(c1ccc(O)c(Cl)c1)N1[C@@H]2CC[C@H]1C[C@@H](c1ccc(F)cc1)C2 [Example 167, endo-(3-Chloro-4-hydroxy-phenyl)-[3-(4-fluoro-phenyl)-8-aza-bicyclo[3.2.1]oct-8-yl]-methanone]
- Inhibitory activity on 11β-HSD 1, % CTL: −22 % CTL

Compound: O=C(c1ccc2nn[nH]c2c1)N1[C@@H]2CC[C@H]1C[C@@H](c1ccc(F)cc1)C2 [Example 120, endo-(3H-Benzotriazol-5-yl)-[3-(4-fluoro-phenyl)-8-aza-bicyclo[3.2.1]oct-8-yl]-methanone]
- Inhibitory activity on 11β-HSD 1, % CTL: 25 % CTL

Compound: NC(=O)c1ccc(C(=O)N2[C@@H]3CC[C@H]2C[C@@H](c2ccc(F)cc2)C3)cc1 [Example 2, endo-4-[3-(4-Fluoro-phenyl)-8-aza-bicyclo[3.2.1]octane-8-carbonyl]-benzamide]
- Inhibitory activity on 11β-HSD 1, % CTL (1 µM): −27 % CTL

Compound: COc1ccc([C@H]2C[C@H]3CC[C@@H](C2)N3C(=O)c2ccc3c(c2)OCCO3)cc1 [Example 134, endo-(2,3-Dihydro-benzo[1,4]dioxin-6-yl)-[3-(4-methoxy-phenyl)-8-aza-bicyclo[3.2.1]oct-8-yl]-methanone]
- Inhibitory activity on 11β-HSD 1, % CTL: −5 % CTL

Compound: CC(C)(C)Oc1ccc(C(=O)N2[C@@H]3CC[C@H]2C[C@@H](c2ccc(F)cc2)C3)cc1 [Example 49, endo-(4-tert-Butoxy-phenyl)-[3-(4-fluoro-phenyl)-8-aza-bicyclo[3.2.1]oct-8-yl]-methanone]
- Inhibitory activity on 11β-HSD 1, % CTL: 67 % CTL

Compound: O=C(c1ccc(OC2CSC2)cc1)N1[C@@H]2CC[C@H]1C[C@@H](c1ccc(F)cc1)C2 [Example 31, endo-[3-(4-Fluoro-phenyl)-8-aza-bicyclo[3.2.1]oct-8-yl]-[4-(thietan-3-yloxy)-phenyl]-methanone]
- Inhibitory activity on 11β-HSD 1, % CTL: 86 % CTL

Compound: O=C(c1cscn1)N1[C@@H]2CC[C@H]1C[C@@H](c1ccc(F)cc1)C2 [Example 43, endo-[3-(4-Fluoro-phenyl)-8-aza-bicyclo[3.2.1]oct-8-yl]-thiazol-4-yl-methanone]
- Inhibitory activity on 11β-HSD 1, % CTL: 95 % CTL

Compound: O=C(c1ccc2c(c1)OCCO2)N1[C@@H]2CC[C@H]1C[C@@H](c1cccc(O)c1)C2 [Example 141, endo-(2,3-Dihydro-benzo[1,4]dioxin-6-yl)-[3-(3-hydroxy-phenyl)-8-aza-bicyclo[3.2.1]oct-8-yl]-methanone]
- Inhibitory activity on 11β-HSD 1, % CTL: 29 % CTL

Compound: O=C(c1ccccn1)N1[C@@H]2CC[C@H]1C[C@@H](c1ccc(F)cc1)C2 [Example 18, endo-[3-(4-Fluoro-phenyl)-8-aza-bicyclo[3.2.1]oct-8-yl]-pyridin-2-yl-methanone]
- Inhibitory activity on 11β-HSD 1, % CTL (1 µM): 97 % CTL

Compound: O=C(c1n[nH]c2c1CCCC2)N1[C@@H]2CC[C@H]1C[C@@H](c1ccc(F)cc1)C2 [Example 23, endo-[3-(4-Fluoro-phenyl)-8-aza-bicyclo[3.2.1]oct-8-yl]-(4,5,6,7-tetrahydro-1H-indazol-3-yl)-methanone]
- Inhibitory activity on 11β-HSD 1, % CTL: 83 % CTL

Compound: O=C(c1ccccc1)N1[C@@H]2CC[C@H]1C[C@@H](c1ccc(F)cc1)C2 [Example 96, endo-[3-(4-Fluoro-phenyl)-8-aza-bicyclo[3.2.1]oct-8-yl]-phenyl-methanone]
- Inhibitory activity on 11β-HSD 1, % CTL: 33 % CTL

Compound: O=C(c1cccc2[nH]cnc12)N1[C@@H]2CC[C@H]1C[C@@H](c1ccc(F)cc1)C2 [Example 73, endo-(1H-Benzoimidazol-4-yl)-[3-(4-fluoro-phenyl)-8-aza-bicyclo[3.2.1]oct-8-yl]-methanone]
- Inhibitory activity on 11β-HSD 1, % CTL: 90 % CTL

Compound: O=C(c1ccc(Cl)cc1)N1[C@@H]2CC[C@H]1C[C@@H](c1ccc(F)cc1)C2 [Example 112, endo-(4-Chloro-phenyl)-[3-(4-fluoro-phenyl)-8-aza-bicyclo[3.2.1]oct-8-yl]-methanone]
- Inhibitory activity on 11β-HSD 1, % CTL: 40 % CTL

Compound: COc1ccc(C(=O)N2[C@@H]3CC[C@H]2C[C@@H](c2ccc(F)cc2)C3)cc1 [Example 108, endo-[3-(4-Fluoro-phenyl)-8-aza-bicyclo[3.2.1]oct-8-yl]-(4-methoxy-phenyl)-methanone]
- Inhibitory activity on 11β-HSD 1, % CTL: 1 % CTL

Compound: O=C(c1ccccn1)N1[C@@H]2CC[C@H]1C[C@@H](c1ccc(F)cc1)C2 [Example 98, endo-[3-(4-Fluoro-phenyl)-8-aza-bicyclo[3.2.1]oct-8-yl]-pyridin-2-yl-methanone]
- Inhibitory activity on 11β-HSD 1, % CTL (1 µM): 74 % CTL

Compound: Cc1cc(=O)n2ncc(C(=O)N3[C@@H]4CC[C@H]3C[C@@H](c3ccc(F)cc3)C4)c2[nH]1 [Example 8, endo-3-[3-(4-Fluoro-phenyl)-8-aza-bicyclo[3.2.1]octane-8-carbonyl]-5-methyl-4H-pyrazolo[1,5-a]pyrimidin-7-one]
- Inhibitory activity on 11β-HSD 1, % CTL: 87 % CTL

Compound: NCc1cccc([C@@H]2C[C@H]3CC[C@@H](C2)N3C(=O)c2ccc3c(c2)OCCO3)c1 [Example 147, exo-[3-(3-Aminomethyl-phenyl)-8-aza-bicyclo[3.2.1]oct-8-yl]-(2,3-dihydro-benzo[1,4]dioxin-6-yl)-methanone]
- Inhibitory activity on 11β-HSD 1, % CTL: 99 % CTL

Compound: O=C(c1ccc2c(c1)OCCO2)N1[C@@H]2CC[C@H]1C[C@@H](c1ccccc1O)C2 [Example 159, endo-(2,3-Dihydro-benzo[1,4]dioxin-6-yl)-[3-(2-hydroxy-phenyl)-8-aza-bicyclo[3.2.1]oct-8-yl]-methanone]
- Inhibitory activity on 11β-HSD 1, % CTL: −55 % CTL

Compound: Cn1c(=O)n(C)c2cc(C(=O)N3[C@@H]4CC[C@H]3C[C@@H](c3ccc(F)cc3)C4)ccc21 [Example 39, endo-5-[3-(4-Fluoro-phenyl)-8-aza-bicyclo[3.2.1]octane-8-carbonyl]-1,3-dimethyl-1,3-dihydro-benzoimidazol-2-one]
- Inhibitory activity on 11β-HSD 1, % CTL: 43 % CTL

Compound: O=C(c1n[nH]c2c1CCC2)N1[C@@H]2CC[C@H]1C[C@@H](c1ccc(F)cc1)C2 [Example 6, endo-[3-(4-Fluoro-phenyl)-8-aza-bicyclo[3.2.1]oct-8-yl]-(1,4,5,6-tetrahydro-cyclopentapyrazol-3-yl)-methanone]
- Inhibitory activity on 11β-HSD 1, % CTL: 88 % CTL

Compound: COc1ccc(C(=O)N2[C@@H]3CC[C@H]2C[C@@H](c2ccc(F)cc2)C3)c(OC)c1 [Example 117, endo-(2,4-Dimethoxy-phenyl)-[3-(4-fluoro-phenyl)-8-aza-bicyclo[3.2.1]oct-8-yl]-methanone]
- Inhibitory activity on 11β-HSD 1, % CTL: 53 % CTL

Compound: CC(=O)Nc1ccc(C(=O)N2[C@@H]3CC[C@H]2C[C@@H](c2ccc(F)cc2)C3)cc1 [Example 115, endo-N-{4-[3-(4-Fluoro-phenyl)-8-aza-bicyclo[3.2.1]octane-8-carbonyl]-phenyl}-acetamide]
- Inhibitory activity on 11β-HSD 1, % CTL: 33 % CTL

Compound: endo-[3-(3,4-Difluoro-phenyl)-8-aza-bicyclo[3.2.1]oct-8-yl]-(2,3-dihydro-benzo[1,4]dioxin-6-yl)-methanone [Example 137]
- Inhibitory activity on 11β-HSD 1, % CTL: 16 % CTL

Compound: Cc1ccc(C(=O)N2[C@@H]3CC[C@H]2C[C@@H](c2ccc(F)cc2)C3)cc1C [Example 107, endo-(3,4-Dimethyl-phenyl)-[3-(4-fluoro-phenyl)-8-aza-bicyclo[3.2.1]oct-8-yl]-methanone]
- Inhibitory activity on 11β-HSD 1, % CTL: −38 % CTL

Compound: O=C(c1ccc(O)c(F)c1)N1[C@@H]2CC[C@H]1C[C@@H](c1ccc(F)cc1)C2 [Example 169, endo-(3-Fluoro-4-hydroxy-phenyl)-[3-(4-fluoro-phenyl)-8-aza-bicyclo[3.2.1]oct-8-yl]-methanone]
- Inhibitory activity on 11β-HSD 1, % CTL: −25 % CTL

Compound: O=C(c1ccc2c(c1)OCCO2)N1[C@@H]2CC[C@H]1C[C@@H](c1ccc(OC(F)(F)F)cc1)C2 [Example 140, endo-(2,3-Dihydro-benzo[1,4]dioxin-6-yl)-[3-(4-trifluoromethoxy-phenyl)-8-aza-bicyclo[3.2.1]oct-8-yl]-methanone]
- Inhibitory activity on 11β-HSD 1, % CTL: −5 % CTL

Compound: Cc1[nH]c2ccc(C(=O)N3[C@@H]4CC[C@H]3C[C@@H](c3ccc(F)cc3)C4)cc2c1C [Example 132, endo-(2,3-Dimethyl-1H-indol-5-yl)-[3-(4-fluoro-phenyl)-8-aza-bicyclo[3.2.1]oct-8-yl]-methanone]
- Inhibitory activity on 11β-HSD 1, % CTL: −36 % CTL

Compound: CC(C)CN1Cc2cccc(C(=O)N3[C@@H]4CC[C@H]3C[C@@H](c3ccc(F)cc3)C4)c2C1=O [Example 29, endo-7-[3-(4-Fluoro-phenyl)-8-aza-bicyclo[3.2.1]octane-8-carbonyl]-2-isobutyl-2,3-dihydro-isoindol-1-one]
- Inhibitory activity on 11β-HSD 1, % CTL: 97 % CTL

Compound: CCn1ccc2ccc(C(=O)N3[C@@H]4CC[C@H]3C[C@@H](c3ccc(F)cc3)C4)cc21 [Example 51, endo-(1-Ethyl-1H-indol-6-yl)-[3-(4-fluoro-phenyl)-8-aza-bicyclo[3.2.1]oct-8-yl]-methanone]
- Inhibitory activity on 11β-HSD 1, % CTL: 41 % CTL

Compound: O=C(c1ccccc1F)N1[C@@H]2CC[C@H]1C[C@@H](c1ccc(F)cc1)C2 [Example 57, endo-(2-Fluoro-phenyl)-[3-(4-fluoro-phenyl)-8-aza-bicyclo[3.2.1]oct-8-yl]-methanone]
- Inhibitory activity on 11β-HSD 1, % CTL: 63 % CTL
